Values joined by “and” are separate entries in the source; they are usually repeats but may differ in a detail not shown here. Equal values may be shown once.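 48-hour exposure; five concentrations; linearly interpolated endpoints. GI50: concentration for 50% inhibition of growth. TGI is the concentration that stops growth completely.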
How the values were obtained:
Assay in all cases: NCI-60 cell line screen, 48 h
[1] = system: HT29 colon
[2] = system: UACC-62 melanoma
[3] = system: KM12 colon
[4] = system: A549 NSCLC
[5] = system: EKVX NSCLC
[6] = system: K-562 leukemia
[7] = system: SK-MEL-2 melanoma
[8] = system: IGROV1 ovarian
[9] = system: RXF 393 renal
[10] = system: CCRF-CEM leukemia

Row | SMILES | GI50 [1] | TGI [1] | GI50 [2] | TGI [2] | GI50 [3] | TGI [3] | GI50 [4] | TGI [4] | GI50 [5] | TGI [5] | GI50 [6] | TGI [6] | GI50 [7] | TGI [7] | GI50 [8] | TGI [8] | GI50 [9] | TGI [9] | GI50 [10] | TGI [10]
1 | NC(=O)c1ccc2c(-c3ccnc(NCCCO)n3)c(-c3ccc(F)cc3)nn2c1 | > 21200 nM | > 25000 nM | > 25000 nM | > 25000 nM | > 25000 nM | > 25000 nM | > 23000 nM | > 25000 nM | > 25000 nM | > 25000 nM | > 25000 nM | > 25000 nM | > 25000 nM | > 25000 nM | 12900 nM | > 25000 nM | 21400 nM | > 25000 nM | > 25000 nM | > 25000 nM
2 | c1cc(OCCN2CCCCC2)ccc1CNc1ccc2nc(CCC3CCCCC3)[nH]c2c1 | 907 nM | 3700 nM | 1950 nM | 3470 nM | 2420 nM | 6170 nM | 2540 nM | 7060 nM | 1990 nM | 6190 nM | 852 nM | 3600 nM | 1880 nM | 3620 nM | 2320 nM | 6590 nM | 1500 nM | 3490 nM | 1970 nM | 8340 nM
3 | O=P([O-])(O)OP(=O)([O-])O.[NH-][C@@H]1CCCC[C@H]1[NH-].[Pt+4] | 5670 nM and 3090 nM | > 100000 nM | 9620 nM and 4210 nM | > 100000 nM and 33500 nM | 50800 nM and 24000 nM | > 100000 nM | 10000 nM | > 100000 nM | > 100000 nM | > 100000 nM | 26100 nM and 4090 nM | > 100000 nM | > 53200 nM | > 100000 nM | 12300 nM and 4800 nM | > 100000 nM | 41700 nM and 13600 nM | > 100000 nM | 13000 nM and 6590 nM | > 100000 nM
4 | COC(=O)c1c2c(c(C)[n+]([O-])c1C)C(=O)C=C(NCc1ccc(OC)cc1)C2=O | 1200 nM | > 36700 nM | 850 nM | 2510 nM | 1670 nM | 6630 nM | 2210 nM | 6440 nM | 1920 nM | 5240 nM | 2680 nM | 15300 nM | 2140 nM | 6640 nM | 1060 nM | 3590 nM | 2020 nM | 5990 nM | 1290 nM | 14000 nM
5 | Cn1nc(-c2ccccc2)nc1[N+](=O)[O-] |  | > 10000 nM |  | > 10000 nM |  | > 10000 nM |  | > 10000 nM |  | > 10000 nM |  | > 10000 nM |  | > 10000 nM |  | > 10000 nM |  | > 10000 nM |  | > 10000 nM
6 | CN(C)C1CCN(C(=O)c2ccc(NC(=O)Nc3ccc(-c4nc(N5CCOCC5)nc(N5CCOCC5)n4)cc3)cc2)CC1 | 13.8 nM and 15.3 nM and 13.1 nM | 266 nM and 2500 nM and 302 nM | 23.3 nM and 16.9 nM and 12.5 nM | 109 nM and 121 nM and 127 nM | 35.5 nM and 42.3 nM and 43.7 nM | 7730 nM and 2500 nM and 2360 nM | 13.2 nM and 18.3 nM and 41.7 nM | 232 nM and 360 nM and 1020 nM | 15.8 nM and 20.3 nM and 40.4 nM |  | 130 nM and 35.7 nM and 132 nM |  | 23.6 nM and 24.3 nM and 19.6 nM | 74.4 nM and 113 nM and 90 nM | < 10 nM and 7.88 nM and 10.3 nM | 55.3 nM and 57.4 nM and 141 nM | 23 nM and 27.1 nM and 210 nM |  | 21.7 nM and 49.1 nM and 104 nM | 
